tested on: M-NFS-60 cells; assay: M-NFS-60 cell in vitro assay (CCK, 48 h, M-CSF factor medium); format: cell-based; details: M-NFS-60 cells; read-out: M-NFS-60cellassay IC50
Protocol: To determine the inhibitory activity of compounds on M-NFS-60 cells.
• M-NFS-60 cell line (ATCC, Cat. No.: CRL-1838) • RPMI-1640 medium (Gibco, domestic subpackage, Cat. No.: C11875500BT) • Recombinant Mouse CSF1/M-CSF (Sino Biological Inc., Cat. No.: 51112-MNAH) • PAN/Serum (BioTECH, Cat. No.: P30-2602) • Trypsin/0.05% Trypsin-EDTA (Gibco, Cat. No.: 25300-062) • 0.4% Trypan Blue (Sigma, Cat. No.: T8154-20 ml) • Penicillin-Streptomycin (Hyclone, Cat. No.: SV30010) • DMSO (Solarbio, Cat. No.: D8371) • PBS (Solarbio, Cat. No.: P1020) • CCK (AbMole BioScience, Cat. No.: M4839-500Tests)
• 1) M-CSF factor stock solution: take 10 μg of powdered m-CSF factor, add 0.4 ml of saline, formulate 25 ug/ml and store at −80° C. • 2) M-CSF factor (25 ng/ml) medium: • 1640 (Gibco)+10% PAN+100×Penicillin-Streptomycin+100×M-CSF stock solution • 3) Complete medium: • 1640 (Gibco)+10% PAN+100×Penicillin-Streptomycin • 4) Compound preparation: 2-3 mg of the compound was added to DMSO to formulate a 30 mM stock solution, −80° C. refrigerator storage
• 1) Cell resuscitation: the frozen cells in the cryovial were thawed rapidly by shaking in a 37° C. water bath, then 4 mL of medium was added. After mixing evenly, they were centrifuged at 125×g for 5 min, and the supernatant was discarded. The cells were resuspended and transferred to the culture flasks, and were cultured in a 5% CO2 fully saturated humidity incubator. • 2) Cell passaging: M-NFS-60 cells are semi-suspension cells, which were collected directly in a 15 mL centrifuge tube, centrifuged at 125×g for 5 min. and the supernatant was discarded. The cells were resuspended and passaged into new culture flasks at a ratio of 1:5 to 1:10. • 3) After the newly resuscitated cells were passaged 1-2 times for cell stabilization, compound inhibition assays were started when the cells were in the logarithmic growth phase. • (a) Cell collection and counting: the same as the cell passaging step, centrifuge in two tubes, one tube with M-CSF factor medium to resuspend the cells, the other tube with complete medium to resuspend the cells. Take 10 μL of cell suspension in each tube, and count the cells by Tepan blue staining. • (b) Dilute the cell solution according to the concentration of inoculated cells respectively, the concentration of M-NFS-60 cells inoculated with factor was 5.56×10^4 cells/mL, and the concentration of inoculated without factor was 5×10^4 cells/mL. • (c) Seed plate: 384 well plate inoculated with M-NFS-60 cells, 36 uL/well, triplicate wells, the number of inoculated cells was equivalent to 2000 cells/well, set with blank control, factor free negative control, normal control, DMSO control and experimental wells. The cells were placed in a 5% CO2 fully saturated humidity incubator for 4 h. • (d) Sampling compounds: 96 well plates were used for compound preparation. The compound solution prepared in advance was diluted to corresponding gradient concentration with DMSO. An appropriate amount of the diluted solution in the previous step was added to an equal volume of factor containing medium. The 96 well plates were centrifuged at 1000 rpm for 5 min, which played the role of defoaming and spinning down droplets and condensation. Remove the 384 well plate from the incubator, add the diluted compound solution into each well sequentially, 4 μL/well; DMSO wells and normal wells were added with corresponding factor containing medium, 4 μL/well. Then it was put into CO2 incubator for 48 h. • (e) After incubation for 48 h, CCK was added to each well, 4 uL, and the plates were placed in the incubator for another 2 h, and then the OD (optical density) value at 450 nm was measured by microplate reader.
The IC50 values for each test compound were fitted using professional graphing and analysis software.

`CN(c1cncc(-c2cnn(C)c2)c1)[C@H]1CCc2c(C(=O)Nc3ccc(C(F)(F)F)cc3)cccc21` [Compound 20, (S)-1-(methyl (5-(1-methyl-1H-pyrazol-4-yl)pyridin-3-yl)amino)-N-(4-(trifluoromethyl)phenyl)-2,3-dihydro-1H-indene-4-carboxamide] and `CN(c1cncc(-c2cnn(C)c2)c1)[C@H]1CCc2c(C(=O)Nc3cccc(C(F)(F)F)c3)cccc21` [Compound 22b] cannot be ordered by IC50: under 50 nM for the first, under 50 nM for the second.

First: CN1CCc2ccc(NC(=O)c3cccc4c3CC[C@@H]4N(C)c3cncc(-c4cnn(C)c4)c3)cc2C1 [Compound 22c]
Second: CN1CCc2cc(NC(=O)c3cccc4c3CC[C@@H]4N(C)c3cncc(-c4cnn(C)c4)c3)ccc2C1 [Compound 22e]
The IC50 of the first is lower: 50 to 200 nM for the first, 200 to 500 nM for the second.

First: CN(C)Cc1cccc(NC(=O)c2cccc3c2CC[C@@H]3N(C)c2cncc(-c3cnn(C)c3)c2)c1 [Compound 22d]
Second: CN(C)Cc1ccc(NC(=O)c2cccc3c2CC[C@@H]3N(C)c2cncc(-c3cnn(C)c3)c2)cc1 [Compound 22f]
The IC50 of the first is lower: 50 to 200 nM for the first, over 500 nM for the second. The first is the more potent here.

First: CN(c1cncc(-c2cnn(C)c2)c1)[C@H]1CCc2c(C(=O)Nc3nn(C)c4ccccc34)cccc21 [Compound 22g]
Second: CN(c1cncc(-c2cnn(C)c2)c1)[C@H]1CCc2c(NC(=O)c3ccc(C(F)(F)F)cc3)cccc21 [Compound 23, (S)—N-(1-(methyl (5-(1-methyl-1H-pyrazol-4-yl)pyridin-3-yl)amino)-2,3-dihydro-1H-inden-4-yl)-4-(trifluoromethyl)benzamide]
The IC50 of the first is lower: under 50 nM for the first, over 500 nM for the second. The first is the more potent here.

`Cn1cc(-c2cncc(N[C@H]3CCc4c(NC(=O)c5ccc6c(c5)OC(F)(F)O6)cccc43)n2)cn1` [Compound 24, (S)-2,2-difluoro-N-(1-((6-(1-methyl-1H-pyrazol-4-yl)pyrazin-2-yl)amino)-2,3-dihydro-1H-inden-4-yl)benzo[d][1,3]dioxole-5-carboxamide] and `Cc1cccc(C(=O)Nc2cccc3c2CC[C@@H]3Nc2cncc(-c3cnn(C)c3)n2)c1` [Compound 25a] cannot be ordered by IC50: under 50 nM for the first, under 50 nM for the second.

First: Cc1cccc(C(=O)Nc2cccc3c2CC[C@H]3Nc2cncc(-c3cnn(C)c3)n2)c1 [Compound 25b]
Second: Cc1cccc(NC(=O)c2cccc3c2CC[C@@H]3Nc2cncc(-c3cnn(C)c3)n2)c1 [Compound 26, (S)-1-((6-(1-methyl-1H-pyrazol-4-yl)pyrazin-2-yl)amino)-N-(m-tolyl)-2,3-dihydro-1H-indene-4-carboxamide]
The IC50 of the first is higher: over 500 nM for the first, under 50 nM for the second.

Compared with `Cn1cc(-c2cncc(N[C@H]3CCc4c(NC(=O)c5cccc(C(F)(F)F)c5F)cccc43)n2)cn1` [Compound 25c], `Cn1cc(-c2cncc(N[C@@H]3CCc4c(NC(=O)c5cccc(C(F)(F)F)c5F)cccc43)n2)cn1` [Compound 25d] is higher in IC50: under 50 nM for the first, over 500 nM for the second.

`CN1CCN(c2cccc(C(=O)Nc3cccc4c3CC[C@@H]4Nc3cncc(-c4cnn(C)c4)n3)c2)CC1` [Compound 25e] and `CN1CCN(Cc2ccc(C(=O)Nc3cccc4c3CC[C@@H]4Nc3cncc(-c4cnn(C)c4)n3)cc2)CC1` [Compound 25f] fall in the same range of IC50: 50 to 200 nM for the first, 50 to 200 nM for the second.

First: Cn1cc(-c2cncc(N[C@H]3CCc4c(C(=O)Nc5cccc(C6CC6)c5)cccc43)n2)cn1 [Compound 27a]
Second: CC(C)NC(=O)c1cccc2c1CC[C@@H]2Nc1cncc(-c2cnn(C)c2)n1 [Compound 27e]
The IC50 of the first is lower: under 50 nM for the first, 50 to 200 nM for the second. The first is the more potent here.

Going from `Cn1cc(-c2cncc(N[C@H]3CCc4c(C(=O)N5CCCCC5)cccc43)n2)cn1` [Compound 27b] to `Cn1cc(-c2cncc(N[C@H]3CCc4c(C(=O)NC5CCCCC5)cccc43)n2)cn1` [Compound 27c], the IC50 falls from over 500 nM to under 50 nM.

`CN(C)C(=O)c1cccc2c1CC[C@@H]2Nc1cncc(-c2cnn(C)c2)n1` [Compound 27d] and `CN1CCC(NC(=O)c2cccc3c2CC[C@@H]3Nc2cncc(-c3cnn(C)c3)n2)CC1` [Compound 27h] cannot be ordered by IC50: over 500 nM for the first, over 500 nM for the second.

`Cn1cc(-c2cncc(N[C@H]3CCc4c(C(=O)NC5CCC(F)(F)CC5)cccc43)n2)cn1` [Compound 27f] and `Cn1cc(-c2cncc(N[C@H]3CCc4c(C(=O)NN5CC6CCCC6C5)cccc43)n2)cn1` (stereo partly drawn) [Compound 27i] cannot be ordered by IC50: under 50 nM for the first, under 50 nM for the second.

From patent publication US20260125359A1, “HETEROARYL COMPOUNDS AS MULTI-TARGET PROTEIN KINASE INHIBITORS” (FUJIAN HAIXI PHARMACEUTICALS CO., LTD., priority 2023, published 2026)
